Measurements published in article PMC7181660, “A novel specific PERK activator reduces toxicity and extends survival in Huntington's disease models” (Scientific Reports, 2020).

Tests used:
Assay in all cases: biochemical
Format in all cases: biochemical
panel of 391 kinases [1] = biological target: panel of 391 kinases (Homo sapiens, UniProt Q9UKE5); conditions: TNIK, MK-28 1 µM, ATP 1 µM
panel of 391 kinases [2] = biological target: panel of 391 kinases (Homo sapiens, UniProt Q9UL54); conditions: TAOK2/TAO1, MK-28 1 µM, ATP 1 µM
panel of 391 kinases [3] = biological target: panel of 391 kinases (Homo sapiens, UniProt Q96SB4); conditions: SRPK1, MK-28 1 µM, ATP 1 µM
panel of 391 kinases [4] = biological target: panel of 391 kinases (Homo sapiens, UniProt P42684); conditions: ABL2/ARG, MK-28 1 µM, ATP 1 µM
panel of 391 kinases [5] = biological target: panel of 391 kinases (Homo sapiens, UniProt Q9NY57); conditions: STK32B/YANK2, MK-28 1 µM, ATP 1 µM
panel of 391 kinases [6] = biological target: panel of 391 kinases (Homo sapiens, UniProt P36894); conditions: ALK3/BMPR1A, MK-28 1 µM, ATP 1 µM
panel of 391 kinases [7] = biological target: panel of 391 kinases (Homo sapiens, UniProt O95747); conditions: OSR1/OXSR1, MK-28 1 µM, ATP 1 µM
panel of 391 kinases [8] = biological target: panel of 391 kinases (Homo sapiens, UniProt Q9Y6M4); conditions: CK1g3, MK-28 1 µM, ATP 1 µM
panel of 391 kinases [9] = biological target: panel of 391 kinases (Homo sapiens, UniProt Q14164); conditions: IKKe/IKBKE, MK-28 1 µM, ATP 1 µM
panel of 391 kinases [10] = biological target: panel of 391 kinases (Homo sapiens, UniProt P37173); conditions: TGFBR2, MK-28 1 µM, ATP 1 µM
panel of 391 kinases [11] = biological target: panel of 391 kinases (Homo sapiens, UniProt O15111); conditions: IKKa/CHUK, MK-28 1 µM, ATP 1 µM
panel of 391 kinases [12] = biological target: panel of 391 kinases (Homo sapiens, UniProt Q13627); conditions: DYRK1/DYRK1A, MK-28 1 µM, ATP 1 µM
panel of 391 kinases [13] = biological target: panel of 391 kinases (Homo sapiens, UniProt Q9Y6E0); conditions: MST3/STK24, MK-28 1 µM, ATP 1 µM
panel of 391 kinases [14] = biological target: panel of 391 kinases (Homo sapiens, UniProt Q07912); conditions: ACK1, MK-28 1 µM, ATP 1 µM
panel of 391 kinases [15] = biological target: panel of 391 kinases (Homo sapiens, UniProt Q9H792); conditions: PEAK1, MK-28 1 µM, ATP 1 µM
panel of 391 kinases [16] = biological target: panel of 391 kinases (Homo sapiens, UniProt Q9NRH2); conditions: SNRK, MK-28 1 µM, ATP 1 µM
panel of 391 kinases [17] = biological target: panel of 391 kinases (Homo sapiens, UniProt Q9UHD2); conditions: TBK1, MK-28 1 µM, ATP 1 µM
panel of 391 kinases [18] = biological target: panel of 391 kinases (Homo sapiens, UniProt Q9P2K8); conditions: kinase EIF2AK4, compound at 1 µM, single dose in duplicates, 1 µM ATP
panel of 391 kinases [19] = biological target: panel of 391 kinases (Homo sapiens, UniProt P15735); conditions: PHKg2, MK-28 1 µM, ATP 1 µM
panel of 391 kinases [20] = biological target: panel of 391 kinases (Homo sapiens, UniProt P51617); conditions: IRAK1, MK-28 1 µM, ATP 1 µM
panel of 391 kinases [21] = biological target: panel of 391 kinases (Homo sapiens, UniProt P06239); conditions: LCK, MK-28 1 µM, ATP 1 µM
panel of 391 kinases [22] = biological target: panel of 391 kinases (Homo sapiens, UniProt Q9P0L2); conditions: MARK1, MK-28 1 µM, ATP 1 µM
panel of 391 kinases [23] = biological target: panel of 391 kinases (Homo sapiens, UniProt P78527); conditions: kinase DNA-PK, compound at 1 µM, single dose in duplicates, 1 µM ATP
panel of 391 kinases [24] = biological target: panel of 391 kinases (Homo sapiens, UniProt Q9UKI8); conditions: TLK1, MK-28 1 µM, ATP 1 µM
panel of 391 kinases [25] = biological target: panel of 391 kinases (Homo sapiens, UniProt Q32MK0); conditions: MYLK3, MK-28 1 µM, ATP 1 µM
panel of 391 kinases [26] = biological target: panel of 391 kinases (Homo sapiens, UniProt Q8IWQ3); conditions: BRSK2, MK-28 1 µM, ATP 1 µM
[27] = read-out: % Enzyme Activity (relative to DMSO controls)

In the case of `CN(/N=C\c1ccc(O)c(O)c1)c1nc(-c2ccccc2)cc(-c2ccccc2)n1` [MK-28], the “% Enzyme Activity (relative to DMSO controls)” value (panel of 391 kinases [1]) is reported as 100.50%, the remaining activity at 1 µM (panel of 391 kinases [1]; [27]) is reported as 102% and the “% Enzyme Activity (relative to DMSO controls)” value (panel of 391 kinases [2]) is reported as 107.98%. The remaining activity at 1 µM (panel of 391 kinases [2]; [27]) was 111%, the “% Enzyme Activity (relative to DMSO controls)” value (panel of 391 kinases [3]) was 103.25% and the remaining activity at 1 µM (panel of 391 kinases [3]; [27]) was 104%. For the same compound, the “% Enzyme Activity (relative to DMSO controls)” value (panel of 391 kinases [4]) was 99.46%, the remaining activity at 1 µM (panel of 391 kinases [4]; [27]) was 100% and the “% Enzyme Activity (relative to DMSO controls)” value (panel of 391 kinases [5]) was 100.71%. For the same compound, the remaining activity at 1 µM (panel of 391 kinases [5]; [27]) was 101%, the “% Enzyme Activity (relative to DMSO controls)” value (panel of 391 kinases [6]) was 98.85% and the remaining activity at 1 µM (panel of 391 kinases [6]; [27]) was 106%. For the same compound, the “% Enzyme Activity (relative to DMSO controls)” value (panel of 391 kinases [7]) was 101.98%, the remaining activity at 1 µM (panel of 391 kinases [7]; [27]) was 105% and the “% Enzyme Activity (relative to DMSO controls)” value (panel of 391 kinases [8]) was 76.84%. For the same compound, the remaining activity at 1 µM (panel of 391 kinases [8]; [27]) was 80.6%, the “% Enzyme Activity (relative to DMSO controls)” value (panel of 391 kinases [9]) was 93.45% and the remaining activity at 1 µM (panel of 391 kinases [9]; [27]) was 96%. The “% Enzyme Activity (relative to DMSO controls)” value (panel of 391 kinases [10]) was 94.50%, the remaining activity at 1 µM (panel of 391 kinases [10]; [27]) was 102% and the “% Enzyme Activity (relative to DMSO controls)” value (panel of 391 kinases [11]) was 106.17%. For the same compound, the remaining activity at 1 µM (panel of 391 kinases [11]; [27]) was 107%, the “% Enzyme Activity (relative to DMSO controls)” value (panel of 391 kinases [12]) was 102.59% and the remaining activity at 1 µM (panel of 391 kinases [12]; [27]) was 103%. For the same compound, the “% Enzyme Activity (relative to DMSO controls)” value (panel of 391 kinases [13]) was 121.45%, the remaining activity at 1 µM (panel of 391 kinases [13]; [27]) was 122% and the “% Enzyme Activity (relative to DMSO controls)” value (panel of 391 kinases [14]) was 98.95%. For the same compound, the remaining activity at 1 µM (panel of 391 kinases [14]; [27]) was 113%, the “% Enzyme Activity (relative to DMSO controls)” value (panel of 391 kinases [15]) was 87.56% and the remaining activity at 1 µM (panel of 391 kinases [15]; [27]) was 88.6%. The “% Enzyme Activity (relative to DMSO controls)” value (panel of 391 kinases [16]) was 99.62%, the remaining activity at 1 µM (panel of 391 kinases [16]; [27]) was 100% and the “% Enzyme Activity (relative to DMSO controls)” value (panel of 391 kinases [17]) was 116.87%. For the same compound, the remaining activity at 1 µM (panel of 391 kinases [17]; [27]) was 126%, the “% Enzyme Activity (relative to DMSO controls)” value (panel of 391 kinases [18]) was 87.73% and the remaining activity at 1 µM (panel of 391 kinases [18]; [27]) was 88.1%. The “% Enzyme Activity (relative to DMSO controls)” value (panel of 391 kinases [19]) was 95.93%, the remaining activity at 1 µM (panel of 391 kinases [19]; [27]) was 96.2% and the “% Enzyme Activity (relative to DMSO controls)” value (panel of 391 kinases [20]) was 84.75%. For the same compound, the remaining activity at 1 µM (panel of 391 kinases [20]; [27]) was 88.3%, the “% Enzyme Activity (relative to DMSO controls)” value (panel of 391 kinases [21]) was 116.76% and the remaining activity at 1 µM (panel of 391 kinases [21]; [27]) was 117%. The “% Enzyme Activity (relative to DMSO controls)” value (panel of 391 kinases [22]) was 94.22%, the remaining activity at 1 µM (panel of 391 kinases [22]; [27]) was 94.5% and the “% Enzyme Activity (relative to DMSO controls)” value (panel of 391 kinases [23]) was 102.10%. For the same compound, the remaining activity at 1 µM (panel of 391 kinases [23]; [27]) was 103%, the “% Enzyme Activity (relative to DMSO controls)” value (panel of 391 kinases [24]) was 93.00% and the remaining activity at 1 µM (panel of 391 kinases [24]; [27]) was 96.5%. For the same compound, the “% Enzyme Activity (relative to DMSO controls)” value (panel of 391 kinases [25]) was 104.33%, the remaining activity at 1 µM (panel of 391 kinases [25]; [27]) was 106% and the “% Enzyme Activity (relative to DMSO controls)” value (panel of 391 kinases [26]) was 99.36%. For the same compound, the remaining activity at 1 µM (panel of 391 kinases [26]; [27]) was 101%.
